Results from patent US7208517B1, “Endothelin antagonists” (Abbott Labortories, priority 1994, dated 2007).

Target: T1, ETA Receptor (Rattus norvegicus, UniProt P26684)
T1 construct: endogenous in cells; host or cells: MMQ rat pituitary cells (membranes)
T1 sequence (P26684 21-426): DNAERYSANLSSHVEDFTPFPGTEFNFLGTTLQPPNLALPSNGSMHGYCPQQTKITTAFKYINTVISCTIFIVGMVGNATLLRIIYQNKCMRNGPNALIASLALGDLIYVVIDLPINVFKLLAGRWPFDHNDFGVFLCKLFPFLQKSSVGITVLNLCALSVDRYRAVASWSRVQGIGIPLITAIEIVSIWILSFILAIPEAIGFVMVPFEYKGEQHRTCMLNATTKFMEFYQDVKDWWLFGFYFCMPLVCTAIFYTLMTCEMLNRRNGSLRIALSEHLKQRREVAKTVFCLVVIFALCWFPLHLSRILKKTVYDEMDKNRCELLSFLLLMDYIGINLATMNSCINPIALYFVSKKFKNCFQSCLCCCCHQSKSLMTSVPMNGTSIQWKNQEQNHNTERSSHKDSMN
Experiment: [125I]ET-1 binding to membranes from MMQ cells (ETA receptor binding assay, Table 4)
Settings: test compound at 1 μM; 0.1 nM [125I]ET-1, MMQ cell membranes, 4 hours at 25° C.
Procedure: Preparation of Membranes from MMQ Cells:
MMQ [MacLeod/MacQueen/Login cell line (prolactin secreting rat pituitary cells)] cells from 150 mL culture flasks were collected by centrifugation (1000×g for 10 min) and then homogenized in 25 mL of 10 mM Hepes (pH 7.4) containing 0.25 M sucrose and protease inhibitors [3 mM EDTA, 0.1 mM PMSF, and 5 μg/mL Pepstatin A] by a micro ultrasonic cell disrupter (Kontes). The mixture was centrifuged at 1000×g for 10 min. The supernatant was collected and centrifuged at 60,000×g for 60 min. The precipitate was resuspended in 20 mM Tris, pH 7.4 containing the above protease inhibitors and centrifuged again. The final pellet was resuspended in 20 mM Tris, pH 7.4 containing protease inhibitors and stored at −80° C. until used. Protein content was determined by the Bio-Rad dye-binding protein assay.
Binding assays were performed in 96-well microtiter plates pretreated with 0.1% BSA. […] After incubation, unbound ligands were separated from bound ligands by a vacuum filtration method using glass-fiber filter strips in PHD cell harvesters (Cambridge Technology, Inc., MA), followed by washing the filter strips with saline (1 mL) for three times. Nonspecific binding was determined in the presence of 1 μM ET-1.

SMILES | % Inhibition of ETA at 1 μM [%]
CCCN(CCN1CC(c2ccc3c(c2)OCO3)C(C(=O)O)C1c1ccc(OC)cc1)S(=O)(=O)c1ccc(C)cc1C (stereo not drawn) [Example 123, trans,trans-1-(2-(N-Propyl-N-(2,4-dimethylbenzenesulfonyl)amino)ethyl)-2-(4-methoxyphenyl)-4-(1,3-benzodioxol-5-yl)pyrrolidine-3-carboxylic acid] | 89.7
CCCN(CCN1CC(c2ccc3c(c2)OCO3)C(C(=O)O)C1c1ccc(OC)cc1)S(=O)(=O)c1ccc(Cl)cc1 (stereo not drawn) [Example 132, trans,trans-1-(2-(N-Propyl-N-(4-chlorobenzenesulfonyl)amino)ethyl)-2-(4-methoxyphenyl)-4-(1,3-benzodioxol-5-yl)pyrrolidine-3-carboxylic acid] | 90.0
COc1ccc(NC(=O)N2CC(c3ccc4c(c3)OCO4)C(C(=O)O)C2c2ccc(OC)cc2)cc1 (stereo not drawn) [Example 10, trans,trans-2-(4-Methoxyphenyl)-4-(1,3-benzodioxol-5-yl)-1-(4-methoxyphenylaminocarbonyl)-3-pyrrolidine-3-carboxylic acid] | 66.1
CCCCN(CCCC)C(=O)CN1CC(c2ccc3c(c2)CCO3)C(C(=O)O)C1c1ccccc1 (stereo not drawn) [Example 153, trans,trans-1-(N,N-Di(n-butyl)aminocarbonylmethyl)-2-phenyl-4-(5-benzo-2,3-dihydrofuranyl)pyrrolidine-3-carboxylic acid] | 97.1
CCCN(CCN1CC(c2ccc3c(c2)OCO3)C(C(=O)O)C1c1ccc(OC)cc1)C(=O)N(C)C (stereo not drawn) [Example 297, trans—trans-2-(4-Methoxyphenyl)-4-(1,3-benzodioxol-5-yl)-1-[2-(N-propyl-N-dimethylaminocarbonylamino)ethyl]-pyrrolidine-3-carboxylic acid] | 84.4
CCCCN(CCCC)C(=O)CN1CC(c2ccc3ccoc3c2)C(C(=O)O)C1c1ccc(OC)cc1 (stereo not drawn) [Example 140, trans,trans-1-(N,N-Di(n-butyl)aminocarbonylmethyl)-2-(4-methoxyphenyl)-4-(6-benzofuranyl)pyrrolidine-3-carboxylic acid] | 106.3
COCCOc1ccc(C2C(C(=O)O)C(c3ccc4c(c3)OCO4)CN2CC(=O)NN(c2ccccc2)C(C)(C)C)cc1 (stereo not drawn) [Example 561, trans,trans-2-(4-(2-Methoxyethoxy)phenyl)-4-(1,3-benzodioxol-5-yl)-1-(N-phenyl-N-t-butylhydrazinocarbonylmethyl)-pyrrolidine-3-carboxylic acid] | 0
CCCN(C)C(=O)CN1CC(c2ccc3c(c2)OCCO3)C(C(=O)O)C1c1ccc(OC)cc1 (stereo not drawn) [Example 29, trans,trans-2-(4-Methoxyphenyl)-4-(1,4-benzodioxan-6-yl)-1-(N-methyl-N-propylaminocarbonylmethyl)-pyrrolidine-3-carboxylic acid] | 85.3
CCC1CCCCN1C(=O)CN1CC(c2ccc3c(c2)OCO3)C(C(=O)O)C1c1ccc(OC)cc1 (stereo not drawn) [Example 302, trans—trans-2-(4-Methoxyphenyl)-4-(1,3-benzodioxol-5-yl)-1-[2-ethylpiperidinyl-carbonylmethyl]-pyrrolidine-3-carboxylic acid] | 86.6
CCCC#CCN1CC(c2ccc3c(c2)OCO3)C(C(=O)O)C1c1ccc(OC)cc1 (stereo not drawn) [Example 37, trans,trans-2-(4-Methoxyphenyl)-4-(1,3-benzodioxol-5-yl)-1-(2-hexynyl)-pyrrolidine-3-carboxylic acid] | 47.9
CCCCN(CCCC)C(=O)CN1CC(c2ccc3c(c2)CCO3)C(C(=O)O)C1c1ccc(OC)cc1 (stereo not drawn) [Example 148, trans,trans-1-(N,N-Di(n-butyl)aminocarbonylmethyl)-2-(4-methoxyphenyl)-4-(5-benzo-2,3-dihydrofuranyl)pyrrolidine-3-carboxylic acid] | 94.7
CCCN(C)C(=O)CN1CC(c2cccc(OC)c2)C(C(=O)O)C1c1ccc(OC)cc1 (stereo not drawn) [Example 55, trans,trans-2-(4-Methoxyphenyl)-4-(3-methoxyphenyl)-1-(N-methyl-N-propyl)aminocarbonylmethyl)-pyrrolidine-3-carboxylic acid] | 50.5
CCCCS(=O)(=O)N(CCC)CCN1CC(c2ccc3c(c2)OCO3)C(C(=O)O)C1c1ccc(OC)cc1 (stereo not drawn) [Example 131, trans,trans-1-(2-(N-Propyl-N-(n-butylsulfonyl)amino)ethyl)-2-(4-methoxyphenyl)-4-(1,3-benzodioxol-5-yl)pyrrolidine-3-carboxylic acid] | 89.5
CCCN(C)C(=O)CN1CC(c2ccccc2)C(C(=O)O)C1c1ccc(OC)cc1 (stereo not drawn) [Example 145, trans,trans-1-(N-Methyl-N-propylaminocarbonylmethyl)-2-(4-methoxyphenyl)-4-(phenyl)pyrrolidine-3-carboxylic acid] | 32.4
COCCOCCN1CC(c2ccc(OC)cc2)C(C(=O)O)C1c1ccc2c(c1)OCO2 (stereo not drawn) [Example 26, trans,trans-2-(1,3-Benzodioxol-5-yl)-4-(4-methoxyphenyl)-1-[2-(2-methoxyethoxy)ethyl)]-pyrrolidine-3-carboxylic acid] | 83.0
CCCN(C)C(=O)CN1CC(c2ccc(O)cc2)C(C(=O)O)C1c1ccc(OC)cc1 (stereo not drawn) [Example 146, trans,trans-1-(N-Methyl-N-propylaminocarbonylmethyl)-2-(4-methoxyphenyl)-4-(4-hydroxyphenyl)pyrrolidine-3-carboxylic acid] | 25.0
CCCCN(CCCC)C(=O)CN1CC(c2cccnc2)C(C(=O)O)C1c1ccc(OC)cc1 (stereo not drawn) [Example 165, trans,trans-1-(N,N-Di(n-butyl)aminocarbonylmethyl)-2-(4-methoxyphenyl)-4-(3-pyridyl)pyrrolidine-3-carboxylic acid] | 54.1
CCCN(CCN1CC(c2ccc3c(c2)OCO3)C(C(=O)O)C1c1ccc(OC)cc1)S(=O)(=O)CC (stereo not drawn) [Example 128, trans,trans-1-(2-(N-Propyl-N-(ethylsulfonyl)amino)ethyl)-2-(4-methoxyphenyl)-4-(1,3-benzodioxol-5-yl)pyrrolidine-3-carboxylic acid] | 95.4
CCCCN(CCCC)C(=O)CN1CC(c2cccc3occc23)C(C(=O)O)C1c1ccc(OC)cc1 (stereo not drawn) [Example 139, trans,trans-1-(N,N-Di(n-butyl)aminocarbonylmethyl)-2-(4-methoxyphenyl)-4-(4-benzofuranyl)pyrrolidine-3-carboxylic acid] | 98.6
CCCCN(CCCC)C(=O)CN1CC(c2ccc(OC)cc2)C(C(=O)O)C1c1ccc(OC)cc1 (stereo not drawn) [Example 149, trans,trans-1-(N,N-Di(n-butyl)aminocarbonylmethyl)-2-(4-methoxyphenyl)-4-(4-methoxyphenyl)pyrrolidine-3-carboxylic acid] | 84.6
CCCCCCS(=O)(=O)N(CCC)CCN1CC(c2ccc3c(c2)OCO3)C(C(=O)O)C1c1ccc(OC)cc1 (stereo not drawn) [Example 306, trans,trans-2-(4-Methoxyphenyl)-4-(1,3-benzodioxol-5-yl)-1-(2-(N-propyl-N-hexanesulfonylamino)ethyl)-pyrrolidine-3-carboxylic acid] | 93.3
CCCN(CCN1CC(c2ccc3c(c2)OCO3)C(C(=O)O)C1c1ccc(OC)cc1)C(=O)OCC(C)C (stereo not drawn) [Example 295, trans—trans-2-(4-Methoxyphenyl)-4-(1,3-benzodioxol-5-yl)-1-[2-(N-propyl-N-iso-butoxycarbonylamino)ethyl]-pyrrolidine-3-carboxylic acid] | 93.0
CCCN(CCN1CC(c2ccc3c(c2)OCO3)C(C(=O)O)C1c1ccc(OC)cc1)S(=O)(=O)CCOCC (stereo not drawn) [Example 126, trans,trans-1-(2-(N-Propyl-N-(2-ethoxyethylsulfonyl)amino)ethyl)-2-(4-methoxyphenyl)-4-(1,3-benzodioxol-5-yl)pyrrolidine-3-carboxylic acid] | 91.7
CCCCN(CCCC)C(=O)CN1CC(c2ccc3c(c2)OCO3)C(C(=O)O)C1c1ccoc1 (stereo not drawn) [Example 156, trans,trans-1-(N. N-Di(n-butyl)aminocarbonylmethyl)-2-(3-furyl)-4-(1,3-benzodioxol-5-yl)pyrrolidine-3-carboxylic acid] | 92.6
